Test results published in publication PMC12775434, “Ultra-large virtual screening unveils potent agonists of the neuromodulatory orphan receptor GPR139” (Nature Communications, 2025).
Several values for one entry are separate records, joined by “and”; a condition that tells them apart may be missing. Equal entries are not always repeated. Where two headings read alike, the source gives them in different places.

Key:
Assay type in all cases: cell-based
GPR139 [1] = biological target: T1, GPR139 (Homo sapiens, UniProt Q6DWJ6); assay: Ca2+ mobilization assay, agonist mode, stable GPR139-CHOk1 cell line; details: for Emax: normalized to Lundbeck Cmp 1a, read-out: Emax (%) Ca2+
T1 sequence (Q6DWJ6 1-353): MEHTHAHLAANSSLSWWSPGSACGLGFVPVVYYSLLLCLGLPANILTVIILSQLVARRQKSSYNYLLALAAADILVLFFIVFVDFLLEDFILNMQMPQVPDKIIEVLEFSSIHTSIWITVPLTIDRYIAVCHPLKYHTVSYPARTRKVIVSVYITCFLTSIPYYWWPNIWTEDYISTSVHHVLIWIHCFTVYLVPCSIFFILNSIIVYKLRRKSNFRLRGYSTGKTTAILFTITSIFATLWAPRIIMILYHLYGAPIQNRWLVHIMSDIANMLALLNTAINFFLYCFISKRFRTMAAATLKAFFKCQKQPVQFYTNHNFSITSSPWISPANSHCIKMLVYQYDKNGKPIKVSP
Method in brief: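 Agonist activity of compounds is assessed in stably transfected CHO-K1 cells using the calcium dye Fluo-4 at 37 °C in HEPES-buffered HBSS (pH 7.4). Efficacy is expressed relative to the reference agonist Lundbeck Cmp 1a, set as 100%.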

[2] = biological target: T2, human muscarinic acetylcholine M1 receptor (M1R) (Homo sapiens, UniProt P11229); assay: Ca2+ mobilization counter-screen in M1R-CHOk1 cells;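 further: 10 µM test compound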
T2 sequence (P11229 1-460): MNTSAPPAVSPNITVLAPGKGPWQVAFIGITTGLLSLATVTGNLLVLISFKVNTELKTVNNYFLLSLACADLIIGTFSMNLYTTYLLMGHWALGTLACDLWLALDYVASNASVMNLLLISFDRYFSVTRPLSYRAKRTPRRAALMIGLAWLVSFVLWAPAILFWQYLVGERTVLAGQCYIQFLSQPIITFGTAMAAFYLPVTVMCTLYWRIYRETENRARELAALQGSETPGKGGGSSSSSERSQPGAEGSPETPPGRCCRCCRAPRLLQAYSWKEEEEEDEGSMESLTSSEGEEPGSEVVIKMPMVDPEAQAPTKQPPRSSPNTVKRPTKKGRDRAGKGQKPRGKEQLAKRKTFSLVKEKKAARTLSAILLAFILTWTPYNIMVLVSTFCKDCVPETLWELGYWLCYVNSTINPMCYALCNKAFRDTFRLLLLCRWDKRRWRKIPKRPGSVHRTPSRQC
Method in brief: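 Counter-screen used CHO-K1 cells stably carrying human M1R, Fluo-4 AM-loaded (2 µM, 1 h, 37 °C). Calcium signal measured at 485/525 nm after compound addition.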

GPR139 [3] = biological target: T1, GPR139; assay: Ca2+ mobilization assay, antagonist mode (EC80 800 nM Lundbeck Cmp 1a after 20 min preincubation), GPR139-CHOk1
Method in brief: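 Antagonist mode: 800 nM (EC80) reference agonist Lundbeck Cmp 1a added following 20 min pre-incubation with 10 µM compound. GPR139-CHOk1 cells, Fluo-4 dye, probenecid-containing HEPES buffer pH 7.4; intracellular Ca2+ measured at 37 °C (ex 485, em 525 nm).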

[4] = Agonist mode, individual replicates (Supplementary Figure 4)
[5] = Supplementary Table 2, mean ± SEM
[6] = log [Compound] M = -4.5, individual replicate columns
[7] = log [Compound] M = -5.0, individual replicate columns
[8] = log [Compound] M = -5.5, individual replicate columns
[9] = log [Compound] M = -6.0, individual replicate columns
[10] = log [Compound] M = -6.5, individual replicate columns
[11] = log [Compound] M = -7.0, individual replicate columns
[12] = log [Compound] M = -7.5, individual replicate columns
[13] = log [Compound] M = -8.0, individual replicate columns
[14] = log [Compound] M = -8.5, individual replicate columns
[15] = log [Compound] M = -9.0, individual replicate columns
[16] = individual replicates (Supplementary Figure 5)
[17] = individual replicates (Supplementary Figure 4)

| Compound | Ca2+ signal (% of Cmp 1a) (GPR139 [1]; [4]) | Emax (GPR139 [1]; [5]) [%] | Ca2+ signal (% of Cmp 1a) (GPR139 [1]; [6]) | Ca2+ signal (% of Cmp 1a) (GPR139 [1]; [7]) | Ca2+ signal (% of Cmp 1a) (GPR139 [1]; [8]) | Ca2+ signal (% of Cmp 1a) (GPR139 [1]; [9]) | Ca2+ signal (% of Cmp 1a) (GPR139 [1]; [10]) | Ca2+ signal (% of Cmp 1a) (GPR139 [1]; [11]) | Ca2+ signal (% of Cmp 1a) (GPR139 [1]; [12]) | Ca2+ signal (% of Cmp 1a) (GPR139 [1]; [13]) | Ca2+ signal (% of Cmp 1a) (GPR139 [1]; [14]) | Ca2+ signal (% of Cmp 1a) (GPR139 [1]; [15]) | Ca2+ signal (% of Carbachol) [2, 16] | Ca2+ signal (% of Cmp 1a) (GPR139 [3]; [17]) | further results |
| --- | --- | --- | --- | --- | --- | --- | --- | --- | --- | --- | --- | --- | --- | --- | --- |
| CN(Cc1cc(Cl)cn1C)C(=O)CCC(=O)c1cccs1 [Compound 11, CN(CC1=CC(Cl)=CN1C)C(=O)CCC(=O)C2=CC=CS2] | – | – | – | – | – | – | – | – | – | – | – | – | – | – | Ca2+ signal (% of Cmp 1a) (GPR139 [1]; 0.1 µM, individual replicates (Supplementary Figure 3)): 1.5 % of Cmp 1a and 12.7 % of Cmp 1a; Ca2+ signal (% of Cmp 1a) (GPR139 [1]; 1 µM, individual replicates (Supplementary Figure 3)): -6.5 % of Cmp 1a and 1.1 % of Cmp 1a; Ca2+ signal (% of Cmp 1a) (GPR139 [1]; 10 µM, individual replicates (Supplementary Figure 3)): 13.9 % of Cmp 1a and 12.8 % of Cmp 1a; Ca2+ signal (% of Cmp 1a) (GPR139 [1]; Agonist mode, individual replicates (Supplementary Figure 1)): 40 % of Cmp 1a and 30 % of Cmp 1a and 33 % of Cmp 1a; Ca2+ signal (% of Cmp 1a) (GPR139 [1]; primary screen, 10 µM compound, agonist mode, three columns = independent experiments): 40 % of Cmp 1a and 30 % of Cmp 1a and 33 % of Cmp 1a; Ca2+ signal (% of Carbachol) ([2]; individual replicates (Supplementary Figure 2)): -4 % of Carbachol and 17 % of Carbachol; Ca2+ signal (% of Cmp 1a) (GPR139 [3]; individual replicates (Supplementary Figure 1)): 63.3528 % of Cmp 1a and 60.457 % of Cmp 1a and 64.2066 % of Cmp 1a |
| CC(NC(=O)Cn1cc(-c2cccs2)nn1)c1ccccc1 (centres unmarked) [Compound 1.38, CC(NC(=O)CN1C=C(N=N1)C2=CC=CS2)C=3C=CC=CC3] | 54 % of Cmp 1a and 77 % of Cmp 1a and 68 % of Cmp 1a | 82 ± 7 | 92 % of Cmp 1a (2×) and 78 % of Cmp 1a and 67 % of Cmp 1a | 90 % of Cmp 1a and 69 % of Cmp 1a and 85 % of Cmp 1a and 60 % of Cmp 1a | 88 % of Cmp 1a and 51 % of Cmp 1a and 91 % of Cmp 1a and 56 % of Cmp 1a | 56 % of Cmp 1a and 17 % of Cmp 1a and 49 % of Cmp 1a and 18 % of Cmp 1a | 22 % of Cmp 1a and -6 % of Cmp 1a and 11 % of Cmp 1a and 3.64 % of Cmp 1a | 7.61 % of Cmp 1a and -2.54 % of Cmp 1a and 1.82 % of Cmp 1a and 1.21 % of Cmp 1a | 0.854 % of Cmp 1a and 4 % of Cmp 1a and -4.35 % of Cmp 1a and 9 % of Cmp 1a | -1.25 % of Cmp 1a and 0.0327 % of Cmp 1a and -3 % of Cmp 1a and 1.5 % of Cmp 1a | 1 % of Cmp 1a and 0.912 % of Cmp 1a and 6 % of Cmp 1a and 0.231 % of Cmp 1a | 5.27 % of Cmp 1a and -0.036 % of Cmp 1a and 7.38 % of Cmp 1a and 4.27 % of Cmp 1a | 0.152 % of Carbachol and 1.48 % of Carbachol and 2 % of Carbachol | 22 % of Cmp 1a and 19 % of Cmp 1a | fold decrease in potency on substitution of the central oxadiazole ring (GPR139 [1]; Ca2+ mobilization): 7 fold; EC50 (GPR139 [1]; GPR139-CHOk1, read-out: EC50, Ca2+ mobilization): 1300 nM |
| Cc1ccc(-c2nc(CC(=O)NC(C)c3ccccc3)no2)nc1C (centres unmarked) [Compound 1.31, CC(C1=CC=CC=C1)NC(CC2=NOC(C3=NC(C)=C(C)C=C3)=N2)=O] | 66 % of Cmp 1a and 63 % of Cmp 1a and 64 % of Cmp 1a | 86 ± 5 | 86 % of Cmp 1a and 82 % of Cmp 1a and 66 % of Cmp 1a and 84 % of Cmp 1a and 90 % of Cmp 1a | 64 % of Cmp 1a and 55 % of Cmp 1a and 44 % of Cmp 1a and 70 % of Cmp 1a and 87 % of Cmp 1a | 36 % of Cmp 1a and 30 % of Cmp 1a and 18 % of Cmp 1a and 73 % of Cmp 1a and 76 % of Cmp 1a | 7 % of Cmp 1a and 7.42 % of Cmp 1a and 11 % of Cmp 1a and 39 % of Cmp 1a and 38 % of Cmp 1a | 11 % of Cmp 1a and -0.0559 % of Cmp 1a and -2.48 % of Cmp 1a and 12 % of Cmp 1a and 13 % of Cmp 1a | -0.363 % of Cmp 1a and -3.44 % of Cmp 1a and 5.45 % of Cmp 1a and 7 % of Cmp 1a and 2.52 % of Cmp 1a | -1.4 % of Cmp 1a and 1.28 % of Cmp 1a and 5 % of Cmp 1a and 4.53 % of Cmp 1a and 3 % of Cmp 1a | 2 % of Cmp 1a and 3.59 % of Cmp 1a and 6 % of Cmp 1a and 2.52 % of Cmp 1a and -0.475 % of Cmp 1a | 1.45 % of Cmp 1a and 1.69 % of Cmp 1a and 3 % of Cmp 1a and 2.45 % of Cmp 1a and -0.45 % of Cmp 1a | 1.77 % of Cmp 1a and -0.256 % of Cmp 1a and 3.41 % of Cmp 1a and 8 % of Cmp 1a and 5 % of Cmp 1a | -8 % of Carbachol and 0.74 % of Carbachol and -0.0562 % of Carbachol | 38 % of Cmp 1a and 34 % of Cmp 1a and 35 % of Cmp 1a | EC50 (GPR139 [1]; Supplementary Table 2, mean ± SEM, read-out: pEC50 Ca2+ (converted)): 3160 nM |
